Assay results: US5530095A, “Peptides of melanin concentrating hormone precursor” (The Salk Institute for Biological Studies, priority 1995, dated 1996)
Bridge positions count the residues as written; N and C are the ends. Ends that are not written are not given here. Peptide text beside a SMILES is read from it.

Experiments:
[1] = test system: rabbit anti-salmon MCH antibody (Antibody PBL #171); experiment: Radioimmunoassay based on rabbit anti-salmon MCH antibody PBL #171 with 125I-salmon MCH tracer; format: binding; conditions: for cross-reactivity in the salmon MCH radioimmunoassay: Antibody PBL #171
Protocol: Salmon MCH, having the formula [drawing 7] is synthesized and purified as described in Example I. It is then conjugated to human alpha-globulins (U.S. Biochemicals, Frac IV) via glutaraldehyde by a reaction well known in the art. The salmon MCH-human alpha-globulins conjugate is diluted with physiological saline (0.9%s/v) to a final concentration of 1 mg total protein per milliliter Freund's Complete Adjuvant Modified M. butyricum (Calbiochem) is emulsified with an equal volume of saline containing either 1 mg conjugate/ml (for initial injections) or 0.5 mg conjugate/ml (for boosters). For each immunization, the rabbits receive a total of 1 ml emulsion in 20-30 intradermal sites; they are injected every 2 weeks and bled through an ear vein 7 days after each booster. Blood is allowed to clot, and serum is separated from cells by centrifugation. The antiserum from each bleeding is characterized with respect to titer and affinity. Some of this antiserum is labelled PBL #171.
Salmon MCH (1 μg) is radiolabelled using 1 mCurie Na^125 I (New England Nuclear, NEZ 033L) and 1 μg Chloramine T in a total volume of 40 μl of 1.25M sodium phosphate buffer, pH 7.5. Reaction is allowed to proceed for 30-45 seconds and then immediately quenched by the addition of 10 mg bovine serum albumin (BSA). ^125 I-salmon MCH is then purified by adsorption and elution from a BondElut C18 cartridge (Analytichem International). The eluant from the C18 cartridge is reduced to about 200 μl using a Savant Speed-Vac and then further purified by HPLC using a Vydac C18 column, 0.46×25 cm, 5 μm, 300 Å pore size. Buffer A is 0.1% trifluoroacetic acid (TFA); buffer B is 60% acetonitrile in 0.1% TFA. ^125 I-salmon MCH is loaded at 35% B at a flow rate of 1.5 ml/min, and a gradient is then run to 70% B in 40 minutes. Peak tubes of radioactivity are made 0.5% final in BSA. Several peaks of radioactivity are reproducibly eluted, and the first major zone of radioactivity is routinely used for the radioimmunoassay.
Throughout the purification, fractions are monitored using an RIA based upon this rabbit anti-salmon MCH antibody. Aliquots for assay are transferred into glass tubes containing BSA (10 μl of 10 mg/ml) and dried in a Savant Speed Vac. Fractions are resuspended in RIA assay buffer and pH checked and adjusted if necessary with NaOH. The radioimmunoassay is carried out using chilled reagents and with tubes partially immersed in ice water. On day one, 100 μl of buffer with Antibody PBL #171 1/24,000 dilution (1/120,000 final dilution) is added to glass tubes containing standard or test samples or buffer only in a volume of 300 μl. All treatments are tested in duplicate. Buffer is 0.1M sodium chloride, 0.05M sodium phosphate, 0.025M ethylenediaminetetraacetic acid (EDTA), 0.1% sodium azide, pH 7.5 (SPEA buffer) with 0.1% BSA. Standards ranging from 0.5 to 2000 pg of synthetic salmon MCH are used. Samples are tested at 2-5 dose levels. After these additions, tubes are vortexed and incubated at 4 ° C. for 24 hours. On day two, 20,000 cpm of ^125 -salmon MCH with 0.5% normal rabbit serum diluted in SPEA buffer +0.1% BSA is added in a volume of 100 μl to all tubes. The tubes are vortexed and returned to the cold for approximately 24 hours. On day three, tracer bound to antibody is precipitated with sheep anti-rabbit gamma globulins (100 μl, 1/40 dilution) and 0.5 ml of 10% (w/v) polyethylene glycol (SIGMA, MW=6,000 to 8,000). Tubes are vortexed and incubated 15 to 30 minutes at room temperature. Tubes are washed with 1 ml of SPEA buffer and centrifuged at 4° C. for 30-45 minutes at 2000× g. Supernatants are decanted, and pellets are counted in a gamma counter. Results are calculated using a standard logit/log radioimmunoassay data processing program NICHD RRB, NIH.

[2] = test system: rat pituitary halves (secretion of ACTH); experiment: In vitro assay using rat pituitary halves to monitor secretion of ACTH; format: cell-based
Protocol: In vitro assays are performed with the mammalian MCH and the synthetic salmon MCH peptides, using rat pituitary halves to monitor for the secretion of ACTH. Assays of this type are described in more detail in Proc. Natl. Acad. Sci., 85, 5556-5560 (1988). […] As a result, it is believed that mammalian MCH should be useful as a natural, peptide regulator of the pituitary-adrenal axis. It is likewise believed that mammalian MCH peptides will be useful for clinical application in the treatment of pigment disorders as well as in the diagnosis and therapy of melanoma. It is also believed that they will be effective in the treatment of certain forms of dementia and may have uses in connection with nerve damage situations.

[3] = Biological potency in mammalian assays
fish melanophores = conditions: cited from earlier work
[4] = test system: melanosomes in amphibians; conditions: cited from earlier work
[5] = test system: antibodies against human GRF; experiment: Cross-reaction with antibodies against human GRF; format: binding; conditions: suggested by homology of human GRF 30-37 with NGE 12-19
Description: The sequences of the NGE's correspond to the sequences of amino acids 110-128 of the MCH precursors (see Tables 1 and 2, below). […] It is thought that NGE's, like NEI, have a biological function in vivo.

Row | Compound | cross-reactivity in the salmon MCH radioimmunoassay [1] | further results
1 | rat CRF: rat corticotropin-releasing factor (SEEPPISLDLTFHLLREVLEMARAEQLAQQAHSNRKLMEII; ends and bridges not checked; UniProt P01143 145-185, looked up) | no cross-reactivity | 
2 | CC[C@H](C)[C@@H]1NC(=O)[C@H](Cc2ccc(O)cc2)NC(=O)[C@@H](N)CSSC[C@@H](C(=O)N2CCC[C@H]2C(=O)N[C@@H](CC(C)C)C(=O)NCC(N)=O)NC(=O)[C@H](CC(N)=O)NC(=O)[C@H](CCC(N)=O)NC1=O [oxytocin] | no cross-reactivity | 
3 | SS-14: SS-14 peptide tested for RIA cross-reactivity (AGCKNFFWKTFTSC; ends and bridges not checked; cysteine pairing not given here; UniProt P61278 103-116, looked up) | no cross-reactivity | 
4 | human GRF(1-40)-OH: human growth hormone releasing factor (1-40), free acid (YADAIFTNSYRKVLGQLSARKLLQDIMSRQQGESNQERGA-OH; UniProt P01286 32-71, looked up, fragment) | no cross-reactivity | 
5 | CSCC[C@@H]1NC(=O)[C@@H](NC(=O)[C@H](CCCNC(=N)N)NC(=O)[C@H](CCSC)NC(=O)[C@@H](NC(=O)[C@@H](N)CC(=O)O)[C@@H](C)O)CSSC[C@@H](C(=O)N[C@@H](Cc2c[nH]c3ccccc23)C(=O)N[C@@H](CCC(=O)O)C(=O)N[C@H](C(=O)O)C(C)C)NC(=O)[C@@H]2CCCN2C(=O)[C@H](CCCNC(=N)N)NC(=O)[C@H](Cc2ccc(O)cc2)NC(=O)[C@H](C(C)C)NC(=O)[C@H](CCCNC(=N)N)NC(=O)CNC(=O)[C@H](C(C)C)NC1=O [salmon MCH] (H-DTMRCMVGRVYRPCWEV-OH; disulfide 5-14) |  | EC50 in the radioimmunoassay ([1]; Antibody PBL #171 1/120,000 final dilution, 125I-salmon MCH tracer, n=10): 18.5 ± 3.2 pg; modulation of ACTH secretion/production [2]: substantially no effect on the secretion of ACTH; biological potency in mammalian assays [3]: extremely little biological potency; melanosome aggregation (fish melanophores): induces melanosome aggregation; effect on melanosomes in amphibians [4]: causing dispersal of melanosomes
6 | Gly-XNGE -Phe-Pro-Ala-Glu-Asn-Gly-Val-Gln-Asn-Thr-Glu-Ser-Thr-Gln-Glu |  | cross-reaction of anti-GRF antibodies [5]: cross-react
7 | β-MSH | no cross-reactivity | 
8 | β-endorphin (YGGFMTSEKSQTPLVTLFKNAIIKNAYKKGE; Beta-endorphin; UniProt P01189 237-267, looked up) | no cross-reactivity | 
9 | NC(=O)CC[C@@H]1NC(=O)[C@H](Cc2ccccc2)NC(=O)[C@H](Cc2ccc(O)cc2)NC(=O)[C@@H](N)CSSC[C@@H](C(=O)N2CCC[C@H]2C(=O)N[C@@H](CCCN=C(N)N)C(=O)NCC(N)=O)NC(=O)[C@H](CC(N)=O)NC1=O [arginine vasopressin] | no cross-reactivity | 
10 | rat ACTH: rat ACTH peptide hormone (SYSMEHFRWGKPVGKKRRPVKVYPNVAENESAEAFPLEF; Corticotropin; UniProt P01194 124-162, looked up) | no cross-reactivity | 
11 | CSCC[C@@H]1NC(=O)[C@@H](NC(=O)[C@H](CCCNC(=N)N)NC(=O)[C@H](CC(C)C)NC(=O)[C@H](CCSC)NC(=O)[C@H](CC(=O)O)NC(=O)[C@H](Cc2ccccc2)NC(=O)[C@@H](N)CC(=O)O)CSSC[C@@H](C(=O)N[C@@H](Cc2c[nH]c3ccccc23)C(=O)N[C@@H](CCC(N)=O)C(=O)N[C@H](C(=O)O)C(C)C)NC(=O)[C@@H]2CCCN2C(=O)[C@H](CCCNC(=N)N)NC(=O)[C@H](Cc2ccc(O)cc2)NC(=O)[C@H](C(C)C)NC(=O)[C@H](CCCNC(=N)N)NC(=O)CNC(=O)[C@H](CC(C)C)NC1=O [mammalian MCH] |  | displacement in radioimmunoassays ([1]; radioimmunoassays also run with synthetic salmon MCH): shows displacement; modulation of ACTH secretion/production [2]: very potent modulators of ACTH production; biological potency in mammalian assays [3]: more potent reaction than the alpha-MSH and beta-MSH antagonists
12 | GnRH: GnRH peptide hormone (QHWSYGLRPG; ends and bridges not checked; UniProt P01148 24-33, looked up) | no cross-reactivity | 
13 | SS-28: SS-28 peptide tested for RIA cross-reactivity (SANSNPAMAPRERKAGCKNFFWKTFTSC; ends and bridges not checked; cysteine pairing not given here; UniProt P61278 89-116, looked up) | no cross-reactivity | 
14 | rat GRF: rat growth hormone releasing factor (HADAIFTSSYRRILGQLYARKLLHEIMNRQQGERNQEQRSRFN; Somatoliberin; UniProt P09916 31-73, looked up) | no cross-reactivity | 
